The values below come from ChEMBL document CHEMBL4715849, “Recent Progress in the Discovery of Antifungal Agents Targeting the Cell Wall” (J Med Chem, 2020).

A short description of data set [1]: Inhibition of Candida albicans IFO1060 1,3-beta-D-glucan synthase.
Data set [2] has as its system Candida albicans. Put plainly: Antifungal activity against Candida albicans […] by NCCLS protocol based broth M27-A microdilution method. The class given is functional, organism-based.
Data set [3] deals with Candida albicans. Put plainly: Antifungal activity against Candida albicans CY1002 infected in iv dosed ICR mouse administered as single dose measured on day 7. The class given is functional. To be noted: 168 h, time 7 day.
In a further data set the target is Endochitinase A1 (Aspergillus fumigatus, UniProt Q873Y0). The data set is described as follows: Inhibition of Aspergillus fumigatus chiA1 (Arg28 to His337) expressed in Pichia pastoris incubated for 70 mins using 4MU-NAc3 as substrate by fluorescence method.
Data set [4] is described as follows: Inhibition of Saccharomyces cerevisiae CTS1 incubated for 70 mins by fluorescence method.
Another data set deals with Chitotriosidase-1 (Homo sapiens, UniProt Q13231). Put plainly: Inhibition of human chitinase1 incubated for 70 mins using 4MU-NAG2 as substrate by fluorescence method.
In a further data set the target is Chitin synthase 1 (Candida albicans, UniProt P23316). The data set is described as follows: Inhibition of Candida albicans chitin synthase 1 expressed in Saccharomyces cerevisiae RRA400-1U cells using [3H]UDP-GlcNAc as substrate by scintillation counting method.
Data set [5] relates to Candida albicans. Put plainly: Antifungal activity against Candida albicans CAI4 incubated for 24 hrs. It is filed as functional.
Data set [6] deals with Candida albicans. Put plainly: Antifungal activity against Candida albicans Ca1055 by CLSI method. The class given is functional.
In the next data set the test system is Candida parapsilosis. Put plainly: Antifungal activity against Candida parapsilosis ATCC22019 by CLSI method. It is filed as functional. The note with it: Lodderomyces parapsilosis.
A further data set concerns Pichia kudriavzevii. Put plainly: Antifungal activity against Candida krusei ATCC 6258 by CLSI method. The class given is functional.
The next data set relates to Nakaseomyces glabratus. Put plainly: Antifungal activity against Candida glabrata MY1381 by CLSI method. The class given is functional.
Data set [7] deals with Candida albicans. Put plainly: Antifungal activity against Candida albicans Ca2323/ORF6.945 by CLSI method. The class given is functional.
The subject of data set [8] is Aspergillus fumigatus. The data set is described as follows: Antifungal activity against Aspergillus fumigatus MF5668 by CLSI method. It is filed as functional.
The subject of another data set is Clavispora lusitaniae. Put plainly: Antifungal activity against Candida lusitaniae MY1396 by CLSI method. The class given is functional.
In a further data set the test system is Erythrocyte. The data set is described as follows: Hemolytic activity in ICR mouse red blood cells incubated for 2 hrs by visual observation. It is filed as ADME, cell-based.
Data set [9] can be described thus: Inhibition of Aspergillus fumigatus GWT1 expressed in Saccharomyces cerevisiae using UDP-GlcNAc as substrate incubated for 20 mins followed by palmitoyl-CoA addition and measured after 2 hrs by TLC-based autography.
For data set [10], the system named is Aspergillus fumigatus. Put plainly: Antifungal activity against Aspergillus fumigatus(Tsukuba). The class given is functional.
Data set [11] concerns Candida albicans. Put plainly: Antifungal activity against Candida albicans CAF2-1. It is filed as functional.
The nature of data set [12]: Inhibition of Candida albicans GWT1 expressed in Saccharomyces cerevisiae using UDP-GlcNAc as substrate incubated for 20 mins followed by palmitoyl-CoA addition and measured after 2 hrs by TLC-based autography.
Data set [13] concerns Candida albicans. The data set is described as follows: Antifungal activity against Candida albicans CY1002 by NCCLS-based M27-A broth microdilution method. The class given is functional.
Data set [14] concerns Aspergillus fumigatus. Put plainly: Antifungal activity against Aspergillus fumigatus CF1003 by NCCLS-based M27-A broth microdilution method. It is filed as functional.
For data set [15], the system named is Mucor mucedo. Put plainly: Antifungal activity against Mucor mucedo IF05776 by serial broth dilution method. It is filed as functional.
The next data set relates to Mucor hiemalis. Put plainly: Antifungal activity against Mucor hiemalis IFO9400 by serial broth dilution method. The class given is functional.
Data set [16] is described as follows: Antifungal activity against Mucor flavus IFO9560 by serial broth dilution method. The class given is functional.
A further data set concerns Mucor racemosus. The data set is described as follows: Antifungal activity against Mucor racemosus IF09255 by serial broth dilution method. The class given is functional.
Data set [17] can be described thus: Antifungal activity against Mucor piriformis IF09416 by serial broth dilution method. The class given is functional.
In data set [18] the test system is Mucor mucedo. The data set is described as follows: Antifungal activity against Mucor mucedo IF06750 by serial broth dilution method. The class given is functional.
A short description of data set [19]: Inhibition of Mucor flavus IFO9560 chitin synthase incubated for 6 to 20 hrs by Lineweaver-Burk analysis.
Data set [20] deals with Mucor mucedo. The data set is described as follows: Antifungal activity against Mucor mucedo IF07684 by serial broth dilution method. The class given is functional.
The test system of the next data set is Mucor javanicus. Put plainly: Antifungal activity against Mucor javanicus IFO4569 by serial broth dilution method. It is filed as functional.

In brackets after ≈: the same amount, converted by molar mass.

Chitin synthase 1, sequence (P23316 whole entry): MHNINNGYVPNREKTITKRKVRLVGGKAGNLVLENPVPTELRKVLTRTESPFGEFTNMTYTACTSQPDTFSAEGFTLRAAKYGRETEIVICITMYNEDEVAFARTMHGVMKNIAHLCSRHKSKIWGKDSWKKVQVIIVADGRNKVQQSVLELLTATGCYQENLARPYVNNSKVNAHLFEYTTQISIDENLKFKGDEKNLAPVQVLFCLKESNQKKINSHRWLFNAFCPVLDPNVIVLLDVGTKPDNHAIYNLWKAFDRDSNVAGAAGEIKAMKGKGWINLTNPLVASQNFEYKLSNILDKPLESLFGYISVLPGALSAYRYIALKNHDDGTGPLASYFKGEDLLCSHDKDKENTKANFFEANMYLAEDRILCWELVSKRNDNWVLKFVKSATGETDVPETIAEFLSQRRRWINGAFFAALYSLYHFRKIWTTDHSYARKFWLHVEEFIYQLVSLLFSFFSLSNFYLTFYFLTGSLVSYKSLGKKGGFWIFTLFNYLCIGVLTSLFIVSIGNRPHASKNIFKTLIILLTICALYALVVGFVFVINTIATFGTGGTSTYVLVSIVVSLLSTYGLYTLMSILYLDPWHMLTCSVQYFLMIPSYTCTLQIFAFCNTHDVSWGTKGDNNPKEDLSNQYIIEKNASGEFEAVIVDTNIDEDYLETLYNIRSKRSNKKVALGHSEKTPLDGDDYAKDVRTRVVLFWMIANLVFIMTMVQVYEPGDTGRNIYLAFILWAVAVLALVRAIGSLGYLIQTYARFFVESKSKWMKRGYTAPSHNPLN
Chitotriosidase-1, sequence (Q13231 whole entry): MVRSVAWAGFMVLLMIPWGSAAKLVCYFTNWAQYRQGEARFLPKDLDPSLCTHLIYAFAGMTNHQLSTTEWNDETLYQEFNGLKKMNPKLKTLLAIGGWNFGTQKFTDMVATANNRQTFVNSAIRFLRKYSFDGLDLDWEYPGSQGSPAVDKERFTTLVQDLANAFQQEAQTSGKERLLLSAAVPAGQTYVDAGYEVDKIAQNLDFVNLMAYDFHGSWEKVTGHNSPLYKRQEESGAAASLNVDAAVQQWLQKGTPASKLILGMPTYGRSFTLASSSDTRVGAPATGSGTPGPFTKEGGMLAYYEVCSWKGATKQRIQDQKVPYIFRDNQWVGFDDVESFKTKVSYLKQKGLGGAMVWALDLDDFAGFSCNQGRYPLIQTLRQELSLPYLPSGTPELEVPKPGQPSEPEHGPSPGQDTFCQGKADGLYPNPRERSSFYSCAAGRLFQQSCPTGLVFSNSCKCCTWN
Endochitinase A1, sequence (Q873Y0 whole entry): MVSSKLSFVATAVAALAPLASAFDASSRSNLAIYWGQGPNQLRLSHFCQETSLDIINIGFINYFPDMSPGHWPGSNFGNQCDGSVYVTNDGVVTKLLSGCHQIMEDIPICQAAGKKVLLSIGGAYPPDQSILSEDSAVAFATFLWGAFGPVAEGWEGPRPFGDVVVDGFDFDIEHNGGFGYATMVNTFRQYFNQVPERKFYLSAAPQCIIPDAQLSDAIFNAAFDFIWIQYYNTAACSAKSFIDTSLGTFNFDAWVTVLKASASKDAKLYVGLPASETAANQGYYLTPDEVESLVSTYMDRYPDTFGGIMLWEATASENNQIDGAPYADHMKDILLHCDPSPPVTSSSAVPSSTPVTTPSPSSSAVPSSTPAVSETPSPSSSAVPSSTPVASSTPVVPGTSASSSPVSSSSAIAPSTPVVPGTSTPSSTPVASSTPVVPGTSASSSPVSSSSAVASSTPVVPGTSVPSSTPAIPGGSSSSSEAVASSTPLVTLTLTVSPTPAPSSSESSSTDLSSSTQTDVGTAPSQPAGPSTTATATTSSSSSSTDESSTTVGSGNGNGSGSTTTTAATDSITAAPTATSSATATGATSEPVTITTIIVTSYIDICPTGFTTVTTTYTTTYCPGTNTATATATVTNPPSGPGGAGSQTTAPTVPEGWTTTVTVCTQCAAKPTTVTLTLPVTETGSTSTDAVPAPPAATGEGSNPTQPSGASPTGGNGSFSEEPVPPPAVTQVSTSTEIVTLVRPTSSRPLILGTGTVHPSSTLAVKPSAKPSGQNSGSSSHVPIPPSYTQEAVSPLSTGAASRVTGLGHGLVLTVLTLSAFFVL

Regarding `CCCCCCCCCCCCC[C@H]1OC(=O)[C@H](CCCN)NC(=O)[C@@H]([C@@H](C)O)NC(=O)CNC(=O)[C@H]([C@H](O)CCN)NC(=O)[C@H]2[C@@H](O)CCN2C(=O)[C@H]([C@@H](C)O)NC(=O)[C@@H]2C[C@@H](O)CN2C(=O)[C@H](C(C)C)NC(=O)[C@H](Cc2ccc(O)cc2)NC(=O)[C@@H](C)NC(=O)[C@H]([C@@H](C)O)NC1=O`, the values for the IC50 (in data set [1]; with Candida albicans [2]) were 6 nM and 0.01 µg/mL (≈ 0.00712 µM), respectively. For the same molecule, the 50% effective dose (ED50) with Candida albicans [3] came out at 0.04 mg/kg.
On to `COc1ccccc1-c1noc2nc(C)[nH]c(=O)c12`, for which the IC50 against Endochitinase A1 was 2600 nM; in data set [4] it was 500 nM; against Chitotriosidase-1, greater than 100000 nM.
As for `CC(C)(C)C#CC=CCNc1cccc2[nH]c(=O)ccc12`, the affinity on Chitin synthase 1 corresponds to a Ki of 630 nM. The molecule further had an MIC50 in the data set on Candida albicans [5] of 3.3 µM (≈ 0.925 µg/mL).
For the molecule `C=C1[C@@H]2C[C@@H]3[C@H](C(C)C)[C@@H](OC(=O)CC(C)(O)CC(C)CC)C[C@@]3(C)C[C@H]2/C(C)=C\C[C@@H]2[C@@H](C)OC(=O)[C@H](O)[C@]12O` (stereo partly specified), the MIC with Candida albicans [6] turned out to be 0.5 µg/mL (≈ 0.87 µM); in the data set with Candida parapsilosis, 0.5 µg/mL (≈ 0.87 µM); against Pichia kudriavzevii, 1 µg/mL (≈ 1.74 µM); in the data set with Nakaseomyces glabratus, 0.5 µg/mL (≈ 0.87 µM); in the data set on Candida albicans [7] it was 0.5 µg/mL (≈ 0.87 µM); against Aspergillus fumigatus [8] it was 0.25 µg/mL (≈ 0.435 µM). In addition, in the data set with Clavispora lusitaniae, the MIC came to 0.25 µg/mL (≈ 0.435 µM).
The molecule `C[C@@H]1[C@H](O)[C@@H](C)/C=C/C=C/C=C/C=C/C=C/C=C/C=C/[C@H](O[C@@H]2O[C@H](C)[C@@H](O)[C@H](N)[C@@H]2O)C[C@@H]2O[C@](O)(C[C@@H](O)C[C@@H](O)[C@H](O)CC[C@@H](O)C[C@@H](O)CC(=O)O[C@H]1C)C[C@H](O)[C@H]2C(=O)O` [AMPHOTERICIN B] yielded an MHC with Erythrocyte of 8 µg/mL.
As to `Nc1ncccc1-c1cc(Cc2ccc(COc3ccccn3)cc2)no1` [MANOGEPIX], the IC50 in [9] was 600 nM; in data set [12], 270 nM. Besides, the minimum inhibitory concentration (MIC) against Aspergillus fumigatus [10] worked out at 0.2 µg/mL (≈ 0.558 µM); against Candida albicans [11], 0.05 µg/mL (≈ 0.14 µM).
On to `C[C@@H]([C@H](N)C(=O)N[C@H](C(=O)O)[C@H]1O[C@@H](n2ccc(=O)[nH]c2=O)[C@H](O)[C@@H]1O)[C@H](O)c1ccc(O)cn1` [NIKKOMYCIN], for which the MIC50 against Candida albicans [13] was 12 µg/mL (≈ 24.2 µM); in the data set on Aspergillus fumigatus [14] it was 11 µg/mL (≈ 22.2 µM).
As for `C[C@@H]1C[C@H]2O[C@@H]2/C=C\C=C\C(=O)Cc2c(Cl)c(O)cc(O)c2C(=O)O1` [RADICICOL], the minimum inhibitory concentration (MIC) (against Mucor mucedo [15]; with Mucor hiemalis; in data set [16]; against Mucor racemosus; in data set [17]; with Mucor mucedo [18]) was 0.39 µg/mL (≈ 1.07 µM) throughout. Further, the MIC in the data set on Mucor mucedo [20] and against Mucor javanicus was 0.39 µg/mL (≈ 1.07 µM) each time. Further, the affinity in data set [19], expressed as Ki, was 87000 nM.
